Measurements: patent US11180483B2, “Substituted reverse pyrimidine Bmi-1 inhibitors” (PTC Therapeutics, Inc., priority 2012, dated 2021)

Tested on: Bmi-1
Test: Sandwich ELISA Assay (Bmi-1 ELISA) in HT-1080 cells
Format: cell-based
In short: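 HT-1080 cells exposed to compound in 0.5% final DMSO for 40-48 h at 37 °C, then lysed. Bmi-1 was quantified by sandwich ELISA: mouse monoclonal capture, rabbit anti-Bmi-1 detection, HRP anti-rabbit and TMB. Read at OD450 (OD570 reference) against a recombinant GST-Bmi-1 standard curve (0-8000 pg/mL).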

| EC50 | Structure (SMILES) |
| --- | --- |
| 10 to 100 nM | Cc1nc2c(F)cc(F)cc2n1-c1nc(N)c(F)c(Nc2ccc(C(F)(F)F)cc2)n1 [Cpd 127, 2-(4,6-difluoro-2-methyl-1H-benzimidazol-1-yl)-5-fluoro-N-[4-(trifluoromethyl)phenyl]pyrimidine-4,6-diamine] |
| 10 to 100 nM | Cc1nc2ccc(F)cc2n1-c1nc(N)c(F)c(Nc2ccc(OC(F)(F)F)cc2)n1 [Cpd 191, 5-fluoro-2-(6-fluoro-2-methyl-1H-benzimidazol-1-yl)-N-[4-(trifluoromethoxy)phenyl]pyrimidine-4,6-diamine] |
| 10 to 100 nM | Nc1cc(Nc2ccc(C(F)(F)F)cc2)nc(-n2c(C3CC3)nc3cc(F)ccc32)n1 [Cpd 83, 2-(2-cyclopropyl-5-fluoro-1H-benzimidazol-1-yl)-N-[4-(trifluoromethyl)phenyl]pyrimidine-4,6-diamine] |
| 100 to 3000 nM | COc1ccc(Nc2ccnc(-c3c(C(F)(F)F)nc4ccccn34)n2)cc1Cl [Cpd 35, N-(3-chloro-4-methoxyphenyl)-2-[2-(trifluoromethyl)imidazo[1,2-a]pyridin-3-yl]pyrimidin-4-amine] |
| 100 to 3000 nM | Cn1c(C(F)(F)F)c(-c2nccc(Nc3ccc(OC(F)F)cc3)n2)c2cc(Cl)ccc21 [Cpd 24, 2-[5-chloro-1-methyl-2-(trifluoromethyl)-1H-indol-3-yl]-N-[4-(difluoromethoxy)phenyl]pyrimidin-4-amine] |
| 10 to 100 nM | Nc1nc(-n2c(C3CC3)nc3c(F)cccc32)nc(Nc2ccc(OC(F)F)c(F)c2)c1F [Cpd 142, 2-(2-cyclopropyl-4-fluoro-1H-benzimidazol-1-yl)-N-[4-(difluoromethoxy)-3-fluorophenyl]-5-fluoropyrimidine-4,6-diamine] |
| 100 to 3000 nM | Cn1c(C(F)(F)F)c(-c2nccc(Nc3ccc(Br)cc3)n2)c2cc(Cl)ccc21 [Cpd 25, N-(4-bromophenyl)-2-[5-chloro-1-methyl-2-(trifluoromethyl)-1H-indol-3-yl]pyrimidin-4-amine] |
| 10 to 100 nM | CCc1nc2ccccc2n1-c1nc(N)c(F)c(Nc2ccc(Cl)c(F)c2)n1 [Cpd 275, N-(4-chloro-3-fluorophenyl)-2-(2-ethyl-1H-benzimidazol-1-yl)-5-fluoropyrimidine-4,6-diamine] |
| 100 to 3000 nM | Cc1nc2c(F)cc(F)cc2n1-c1nc(NCCO)cc(Nc2ccc(C(F)(F)F)cc2)n1 [Cpd 90, 2-{[2-(4,6-difluoro-2-methyl-1H-benzimidazol-1-yl)-6-{[4-(trifluoromethyl)phenyl]amino}pyrimidin-4-yl]amino}ethanol] |
| 10 to 100 nM | CCc1nc2ccccc2n1-c1nc(N)c(F)c(Nc2ccc(OC(F)F)c(F)c2)n1 [Cpd 124, N-[4-(difluoromethoxy)-3-fluorophenyl]-2-(2-ethyl-1H-benzimidazol-1-yl)-5-fluoropyrimidine-4,6-diamine] |
| 1 to 10 nM | CCc1nc2ccccc2n1-c1nc(N)c(F)c(Nc2ccc(OC(F)F)cc2)n1 [Cpd 123, N-[4-(difluoromethoxy)phenyl]-2-(2-ethyl-1H-benzimidazol-1-yl)-5-fluoropyrimidine-4,6-diamine] |
| 10 to 100 nM | COc1ccc2nc(C)n(-c3nc(N)c(F)c(Nc4ccc(C)cc4)n3)c2c1 [Cpd 248, 5-fluoro-2-(6-methoxy-2-methyl-1H-benzimidazol-1-yl)-N-(4-methylphenyl)pyrimidine-4,6-diamine] |
| 10 to 100 nM | Cc1nc2ncc(Cl)cc2n1-c1nc(N)c(F)c(Nc2ccc(OC(F)F)c(F)c2)n1 [Cpd 116, 2-(6-chloro-2-methyl-1H-imidazo[4,5-b]pyridin-1-yl)-N-[4-(difluoromethoxy)-3-fluorophenyl]-5-fluoropyrimidine-4,6-diamine] |
| 10 to 100 nM | CCc1nc2ccccc2n1-c1nc(N)c(F)c(Nc2ccc(C(F)(F)F)cc2)n1 [Cpd 107, 2-(2-ethyl-1H-benzimidazol-1-yl)-5-fluoro-N-[4-(trifluoromethyl)phenyl]pyrimidine-4,6-diamine] |
| 100 to 3000 nM | COCc1nc2ccccc2n1-c1nc(N)c(F)c(Nc2ccc(Cl)cc2)n1 [Cpd 219, N-(4-chlorophenyl)-5-fluoro-2-[2-(methoxymethyl)-1H-benzimidazol-1-yl]pyrimidine-4,6-diamine] |
| 100 to 3000 nM | CC(C)c1ccc(Nc2ccnc(-c3c(C(F)(F)F)nc4ccccn34)n2)cc1 [Cpd 38, N-[4-(propan-2-yl)phenyl]-2-[2-(trifluoromethyl)imidazo[1,2-a]pyridin-3-yl]pyrimidin-4-amine] |
| 10 to 100 nM | Cc1nc2ccccc2n1-c1nc(N)c(F)c(Nc2ccc(OC(F)(F)F)cc2)n1 [Cpd 204, 5-fluoro-2-(2-methyl-1H-benzimidazol-1-yl)-N-[4-(trifluoromethoxy)phenyl]pyrimidine-4,6-diamine] |
| ≤ 1 nM | COc1ccc(Nc2nc(-n3c(C4CC4)nc4ccccc43)nc(N)c2F)cc1 [Cpd 277, 2-(2-cyclopropyl-1H-benzimidazol-1-yl)-5-fluoro-N-(4-methoxyphenyl)pyrimidine-4,6-diamine] |
| 10 to 100 nM | Nc1nc(-n2c(C3CC3)nc3ncc(F)cc32)nc(Nc2ccc(C(F)(F)F)cc2)c1F [Cpd 117, 2-(2-cyclopropyl-6-fluoro-1H-imidazo[4,5-b]pyridin-1-yl)-5-fluoro-N-[4-(trifluoromethyl)phenyl]pyrimidine-4,6-diamine] |

| EC50 | Structure (SMILES) |
| --- | --- |
| 10 to 100 nM | Cc1nc2cc(F)c(F)cc2n1-c1nc(N)cc(Nc2ccc(C(F)(F)F)cc2)n1 [Cpd 64, 2-(5,6-difluoro-2-methyl-1H-benzimidazol-1-yl)-N-[4-(trifluoromethyl)phenyl]pyrimidine-4,6-diamine] |
| 10 to 100 nM | Cc1nc2ccc(F)cc2n1-c1nc(N)c(F)c(Nc2ccc(OC(F)F)cc2)n1 [Cpd 110, N-[4-(difluoromethoxy)phenyl]-5-fluoro-2-(6-fluoro-2-methyl-1H-benzimidazol-1-yl)pyrimidine-4,6-diamine] |
| 10 to 100 nM | Cc1nc2ncc(Cl)cc2n1-c1nc(N)c(F)c(Nc2ccc(C(F)(F)F)cc2)n1 [Cpd 114, 2-(6-chloro-2-methyl-1H-imidazo[4,5-b]pyridin-1-yl)-5-fluoro-N-[4-(trifluoromethyl)phenyl]pyrimidine-4,6-diamine] |
| 10 to 100 nM | Nc1nc(-n2c(C3CC3)nc3c(F)cccc32)nc(Nc2ccc(C(F)(F)F)cc2)c1F [Cpd 140, 2-(2-cyclopropyl-4-fluoro-1H-benzimidazol-1-yl)-5-fluoro-N-[4-(trifluoromethyl]phenyl]pyrimidine-4,6-diamine] |
| 10 to 100 nM | Cc1nc2ccccc2n1-c1nc(N)cc(Nc2ccc(C(F)(F)F)cc2)n1 [Cpd 63, 2-(2-methyl-1H-benzimidazol-1-yl)-N-[4-(trifluoromethyl)phenyl]pyrimidine-4,6-diamine] |
| 10 to 100 nM | Cc1ccc(Nc2ccnc(-c3c(C(F)(F)F)nc4cnccn34)n2)cc1 [Cpd 62, N-(4-methylphenyl)-2-[2-(trifluoromethyl)imidazo[1,2-a]pyrazin-3-yl]pyrimidin-4-amine] |
| 100 to 3000 nM | Fc1ccc2nc(-c3ccccc3)c(-c3nccc(Nc4ccc(Br)cc4)n3)n2c1 [Cpd 26, N-(4-bromophenyl)-2-(6-fluoro-2-phenylimidazo[1,2-a]pyridin-3-yl)pyrimidin-4-amine] |
| 100 to 3000 nM | Cc1nc2ccc(C#N)cc2n1-c1nc(N)c(F)c(Nc2ccc(C(F)(F)F)cc2)n1 [Cpd 222, 1-(4-amino-5-fluoro-6-{[4-(trifluoromethyl)phenyl]amino}pyrimidin-2-yl)-2-methyl-1H-benzimidazole-6-carbonitrile] |
| 100 to 3000 nM | COCCNc1cc(Nc2ccc(C(F)(F)F)cc2)nc(-n2c(C)nc3ccccc32)n1 [Cpd 58, N^4-(2-methoxyethyl)-2-(2-methyl-1H-benzimidazol-1-yl)-N^6-[4-(trifluoromethyl)phenyl]pyrimidine-4,6-diamine] |
| 100 to 3000 nM | FC(F)(F)c1nc2ccccn2c1-c1nccc(Nc2ccc3c(c2)OCO3)n1 [Cpd 28, N-(1,3-benzodioxol-5-yl)-2-[2-(trifluoromethyl)imidazo[1,2-a]pyridin-3-yl]pyrimidin-4-amine] |
| 10 to 100 nM | Cc1nc2c(F)cc(F)cc2n1-c1nc(N)c(F)c(Nc2ccc(OC(F)F)cc2)n1 [Cpd 131, N-[4-(difluoromethoxy)phenyl]-2-(4,6-difluoro-2-methyl-1H-benzimidazol-1-yl)-5-fluoropyrimidine-4,6-diamine] |
| 10 to 100 nM | Cc1nc2ccc(Cl)cc2n1-c1nc(N)cc(Nc2ccc(OC(F)F)cc2)n1 [Cpd 97, 2-(6-chloro-2-methyl-1H-benzimidazol-1-yl)-N-[4-(difluoromethoxy)phenyl]pyrimidine-4,6-diamine] |
| 10 to 100 nM | Cc1nc2ccc(Cl)cc2n1-c1nc(N)c(F)c(Nc2ccc(C(F)(F)F)cc2)n1 [Cpd 160, 2-(6-chloro-2-methyl-1H-benzimidazol-1-yl)-5-fluoro-N-[4-(trifluoromethyl)phenyl]pyrimidine-4,6-diamine] |
| 10 to 100 nM | Cc1nc2ccc(N)cc2n1-c1nc(N)c(F)c(Nc2ccc(C(F)(F)F)cc2)n1 [Cpd 284, 2-(6-amino-2-methyl-1H-benzimidazol-1-yl)-5-fluoro-N-[4-(trifluoromethyl)phenyl]pyrimidine-4,6-diamine] |
| 10 to 100 nM | Cc1nc2ccccn2c1-c1nccc(Nc2ccccc2)n1 [Cpd 6, 2-(2-methylimidazo[1,2-a]pyridin-3-yl)-N-phenylpyrimidin-4-amine] |
| 10 to 100 nM | Nc1cc(Nc2ccc(C(F)(F)F)cc2)nc(-n2c(C3CC3)nc3ccc(F)cc32)n1 [Cpd 82, 2-(2-cyclopropyl-6-fluoro-1H-benzimidazol-1-yl)-N-[4-(trifluoromethyl)phenyl]pyrimidine-4,6-diamine] |
| 100 to 3000 nM | FC(F)(F)c1nc2ccccn2c1-c1nccc(Nc2ccc(-n3cccn3)cc2)n1 [Cpd 39, N-[4-(1H-pyrazol-1-yl)phenyl]-2-[2-(trifluoromethyl)imidazo[1,2-a]pyridin-3-yl]pyrimidin-4-amine] |
| 100 to 3000 nM | FC(F)Oc1ccc(Nc2ccnc(-c3c(C(F)(F)F)nc4ccccn34)n2)cc1 [Cpd 11, N-[4-(difluoromethoxy)phenyl]-2-[2-(trifluoromethyl)imidazo[1,2-a]pyridin-3-yl]pyrimidin-4-amine] |
